Molecular target: recombinant TLR4 (Homo sapiens, UniProt O00206)
Test: Interaction with TLR4 by surface plasmon resonance
Type: binding
Conditions: 0-800 μg/ml, 10 μl/min, 120 seconds
Excerpt: In order to immobilize a target receptor on an assay chip, the receptor was immobilized on the chip by flowing recombinant TLR4 while flowing an EDC/NHS solvent. Thereafter, ethanolamine was flowed to remove weakly immobilized or non-immobilized receptor on the chip.

Sequence of recombinant TLR4 (O00206 24-839, species assumed): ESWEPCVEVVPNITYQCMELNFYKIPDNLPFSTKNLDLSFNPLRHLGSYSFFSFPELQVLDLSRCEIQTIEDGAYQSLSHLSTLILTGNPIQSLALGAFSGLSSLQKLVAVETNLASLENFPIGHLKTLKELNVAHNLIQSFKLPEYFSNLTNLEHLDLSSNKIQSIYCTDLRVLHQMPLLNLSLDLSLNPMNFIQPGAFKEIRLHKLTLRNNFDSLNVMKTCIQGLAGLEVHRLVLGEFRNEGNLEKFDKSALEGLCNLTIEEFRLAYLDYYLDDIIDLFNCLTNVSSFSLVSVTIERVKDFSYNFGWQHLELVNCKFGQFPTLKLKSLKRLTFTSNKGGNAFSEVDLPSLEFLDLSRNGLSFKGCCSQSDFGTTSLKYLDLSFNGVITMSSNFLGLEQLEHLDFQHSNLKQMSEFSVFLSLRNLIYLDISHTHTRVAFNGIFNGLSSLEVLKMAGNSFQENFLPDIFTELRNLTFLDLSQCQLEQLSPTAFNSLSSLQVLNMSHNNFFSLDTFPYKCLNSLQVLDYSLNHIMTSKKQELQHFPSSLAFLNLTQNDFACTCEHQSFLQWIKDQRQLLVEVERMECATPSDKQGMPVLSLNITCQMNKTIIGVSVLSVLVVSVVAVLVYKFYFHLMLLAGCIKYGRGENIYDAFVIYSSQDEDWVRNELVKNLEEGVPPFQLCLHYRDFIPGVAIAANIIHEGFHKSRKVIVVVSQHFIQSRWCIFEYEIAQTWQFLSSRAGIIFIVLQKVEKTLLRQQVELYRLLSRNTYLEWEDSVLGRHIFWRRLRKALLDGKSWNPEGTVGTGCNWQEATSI

hyaluronic acid [10 kDa free HA]
change in response unit (RU) value: the increase in RU value identified in the HACN group was not observed

Source: patent US20250319191A1, “PHARMACEUTICAL COMPOSITION COMPRISING HYALURONIC ACID COMPLEX FOR PREVENTION OR TREATMENT OF SKIN DISEASE” (AJOU UNIVERSITY INDUSTRY-ACADEMIC COOPERATION FOUNDATION, priority 2021, published 2025)
